Test results as given in ChEMBL document CHEMBL1201862, “PubChem BioAssay data set” (2004).
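Grown in 96-well plates, cells were treated for 48 hours with each compound at five concentrations. Insufficient inhibition: endpoint recorded as highest concentration tested. The concentration for 50% growth inhibition is given as GI50.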 Activity calls are given as the source filed them. No stated cut-off is given here; in the data, active = GI50 up to about 1.1 µM and inactive = higher.

Experiments:
Assay in all cases: growth of human tumour cells (NCI), 48 h
[1] = tested on: Hs-578T
[2] = tested on: LXFL 529
[3] = tested on: SNB-78
[4] = tested on: KM-20L2
[5] = tested on: HOP-18
[6] = tested on: XF498
[7] = tested on: M19-MEL
[8] = tested on: DMS-114
[9] = tested on: RXF 631

Structure (SMILES): CN(C)CCNC(=O)c1cccc2[nH]c(-c3ccncc3)nc12
- GI50 [1]: 4.59 µM (inactive)

Structure (SMILES): O=S(=O)(c1ccc2ccccc2c1)N1CCN(S(=O)(=O)c2ccc3ccccc3c2)CC1
- GI50 [1]: 31 µM (inactive)

Structure (SMILES): COc1cc(C2c3cc4c(cc3OC(N3CCOCC3)C2C)OCO4)cc(OC)c1OC(C)=O (centres undefined)
- GI50 [1]: 2.2 µM (inactive)

Structure (SMILES): Nc1nc(N)c2ncn(-c3ccc(Br)cc3)c2n1
- GI50 [1]: 4.12 µM (inactive)

Structure (SMILES): CC1=CC(C)(C)N=C2SC(c3ccc(Cl)cc3)=NN12
- GI50 [2]: 32.4 µM (inactive)
- GI50 [3]: 59.2 µM (inactive)
- GI50 [4]: 22.5 µM (inactive)
- GI50 [5]: 21 µM (inactive)
- GI50 [6]: 14.2 µM (inactive)
- GI50 [7]: 32 µM (inactive)
- GI50 [8]: 23.5 µM (inactive)

Structure (SMILES): COc1cccc(NC(=O)C(=O)C(C(=O)c2ccccc2F)C2OC(=O)c3ccccc32)c1 (centres undefined)
- GI50 [2]: 33.6 µM (inactive)
- GI50 [3]: 15.5 µM (inactive)
- GI50 [4]: 33.3 µM (inactive)
- GI50 [7]: 22.9 µM (inactive)

Structure (SMILES): COc1cc(S(=O)(=O)Nc2ccc(-c3csc(N4C(=O)C(Cl)C4c4ccccc4)n3)cc2)ccc1Cl (centres undefined)
- GI50 [1]: > 100 µM (inactive)

Structure (SMILES): CC/C(=C\c1ccc(OC)cc1)c1ccc(OC)cc1
- GI50 [1]: > 100 µM (inactive)

Structure (SMILES): CCOc1ccccc1/C=C(/C#N)C(N)=O
- GI50 [1]: > 100 µM (inactive)

Structure (SMILES): CCC(C)(C)NC1=C(NC(C)=O)C(=O)c2ccccc2C1=O
- GI50 [2]: 45.6 µM (inactive)
- GI50 [3]: 35.2 µM (inactive)
- GI50 [4]: > 75 µM (inactive)
- GI50 [6]: 14.4 µM (inactive)
- GI50 [7]: 13.3 µM (inactive)

Structure (SMILES): Oc1ccc2ccccc2c1C(c1ccc(Cl)cc1)c1c(O)ccc2ccccc12
- GI50 [1]: 0.989 µM (active)

Structure (SMILES): CC1(C)OCC(C(O)C2OC(C)(C)OC2/C=N\O)O1 (centres undefined)
- GI50 [2]: > 100 µM (inactive)
- GI50 [3]: > 100 µM (inactive)
- GI50 [4]: > 100 µM (inactive)
- GI50 [5]: 37.5 µM (inactive)
- GI50 [6]: > 100 µM (inactive)
- GI50 [7]: > 100 µM (inactive)
- GI50 [8]: > 100 µM (inactive)

Structure (SMILES): CCCCCCCCSC(SCCCCCCCC)=C1C(=O)N(c2ccccc2)N=C1C
- GI50 [9]: > 100 µM (inactive)
- GI50 [2]: 43.4 µM (inactive)
- GI50 [3]: > 100 µM (inactive)
- GI50 [4]: 55.7 µM (inactive)
- GI50 [5]: 61.7 µM (inactive)
- GI50 [7]: 37 µM (inactive)
- GI50 [8]: 28.4 µM (inactive)

Structure (SMILES): O=C(c1ccc2c3c(ccc(C(=O)C(F)(F)F)c13)CC2)C(F)(F)F
- GI50 [2]: 40.3 µM (inactive)
- GI50 [3]: > 100 µM (inactive)
- GI50 [4]: 35.2 µM (inactive)
- GI50 [5]: 53.2 µM (inactive)
- GI50 [6]: 9.31 µM (inactive)
- GI50 [7]: 35.5 µM (inactive)
- GI50 [8]: 41.4 µM (inactive)

Structure (SMILES): CCOC(=O)c1cc(C2(O)CCN(CC(C)CC)C2=O)c(-c2cc(C)no2)[nH]1 (centres undefined)
- GI50 [1]: > 100 µM (inactive)

Structure (SMILES): COc1cc(CN(C)N2C(=O)c3cccc4cc([N+](=O)[O-])cc(c34)C2=O)cc(OC)c1OC
- GI50 [1]: 44.1 µM (inactive)

Structure (SMILES): COC(=O)C(C(=O)C(=O)Nc1c(Cl)cc([N+](=O)[O-])cc1Cl)c1csc(-n2nc(C3=CCCCC3)cc2-c2ccccc2)n1 (centres undefined)
- GI50 [9]: 45.6 µM (inactive)
- GI50 [2]: 40.7 µM (inactive)
- GI50 [3]: 40 µM (inactive)
- GI50 [4]: 29 µM (inactive)
- GI50 [5]: 10.3 µM (inactive)
- GI50 [7]: 52.7 µM (inactive)

Structure (SMILES): O=C(NCCCN1CCN(CCCNC(=O)Nc2cccc3ccccc23)CC1)Nc1cccc2ccccc12
- GI50 [1]: 17.5 µM (inactive)

Structure (SMILES): COC(=O)/C(=C1\OC(=O)C(c2ccc(Cl)cc2)=C1O)c1ccc(Cl)cc1
- GI50 [2]: 26.6 µM (inactive)
- GI50 [3]: 26.4 µM (inactive)
- GI50 [4]: 28.6 µM (inactive)
- GI50 [5]: 21 µM (inactive)
- GI50 [6]: 16.9 µM (inactive)
- GI50 [7]: 22.1 µM (inactive)
- GI50 [8]: 15.8 µM (inactive)

Structure (SMILES): COC(=O)/C=C1/OC(c2ccc(OC)cc2)=C(Cl)C1=O
- GI50 [1]: 25.8 µM (inactive)

Structure (SMILES): C[C@]12CCC(=O)C=C1CC[C@@H]1[C@@H]2[C@@H](O)C[C@@]2(C)[C@H]1CC[C@]2(O)C(=O)COC(=O)COCC(=O)O
- GI50 [3]: 20.9 µM (inactive)
- GI50 [4]: > 100 µM (inactive)
- GI50 [5]: > 100 µM (inactive)
- GI50 [6]: > 100 µM (inactive)
- GI50 [7]: > 100 µM (inactive)
- GI50 [8]: > 100 µM (inactive)

Structure (SMILES): OCCCNCC(O)c1ccc(OCc2ccccc2)c(OCc2ccccc2)c1 (centres undefined)
- GI50 [1]: 13.6 µM (inactive)

Structure (SMILES): COc1cc(O)c2c(O)c3c(c4c2c1[C@]1(C4)C(C)=CCCC1(C)C)[C@H](O)[C@@]1(O)CC(O)=C(C(N)=O)C(=O)[C@@]1(O)C3=O
- GI50 [1]: 0.147 µM (active)

Structure (SMILES): CCOC(=O)CNc1nnnn1C1OC(CO)C(O)C1O (centres undefined)
- GI50 [2]: > 100 µM (inactive)
- GI50 [3]: > 100 µM (inactive)
- GI50 [4]: > 100 µM (inactive)
- GI50 [6]: > 100 µM (inactive)
- GI50 [7]: > 100 µM (inactive)
- GI50 [8]: > 100 µM (inactive)

Structure (SMILES): C=CCOC(=O)Cn1cc(C)c(=O)[nH]c1=O
- GI50 [1]: > 100 µM (inactive)

Structure (SMILES): COc1ccc2oc3c(ccc[n+]3C)c(=O)c2c1
- GI50 [1]: > 100 µM (inactive)

Structure (SMILES): COc1c2ccoc2c(S(=O)(=O)Nc2ccc(Cl)cc2)c2oc(C)cc(=O)c12
- GI50 [3]: > 100 µM (inactive)
- GI50 [4]: > 100 µM (inactive)
- GI50 [5]: > 54.8 µM (inactive)
- GI50 [6]: > 85.1 µM (inactive)
- GI50 [7]: > 100 µM (inactive)
- GI50 [8]: > 68.2 µM (inactive)
